Assay results taken from paper PMC3685217, “Activation of IP3 receptors requires an endogenous 1-8-14 calmodulin-binding motif” (Biochemical Journal, 2012).
Several values for one entry are separate records, joined by “and”; a condition that tells them apart may be missing. Identical values can stand only once.

Assays:
[1] = target: T1, NT (residues 1–604) of rat IP3R1 (Rattus norvegicus, UniProt P29994, DEL318-332); test: [3H]IP3 equilibrium-competition binding to NT; conditions: fragment NT
T1 construct: The NT (residues 1–604) and IBC (residues 224–604) of rat IP3R1; His6 (N, cleaved yes); made in house; host or cells: Escherichia coli BL21(DE3)
T1 sequence (P29994 1-589 isoform P29994-2 limits assumed, stated change not applied): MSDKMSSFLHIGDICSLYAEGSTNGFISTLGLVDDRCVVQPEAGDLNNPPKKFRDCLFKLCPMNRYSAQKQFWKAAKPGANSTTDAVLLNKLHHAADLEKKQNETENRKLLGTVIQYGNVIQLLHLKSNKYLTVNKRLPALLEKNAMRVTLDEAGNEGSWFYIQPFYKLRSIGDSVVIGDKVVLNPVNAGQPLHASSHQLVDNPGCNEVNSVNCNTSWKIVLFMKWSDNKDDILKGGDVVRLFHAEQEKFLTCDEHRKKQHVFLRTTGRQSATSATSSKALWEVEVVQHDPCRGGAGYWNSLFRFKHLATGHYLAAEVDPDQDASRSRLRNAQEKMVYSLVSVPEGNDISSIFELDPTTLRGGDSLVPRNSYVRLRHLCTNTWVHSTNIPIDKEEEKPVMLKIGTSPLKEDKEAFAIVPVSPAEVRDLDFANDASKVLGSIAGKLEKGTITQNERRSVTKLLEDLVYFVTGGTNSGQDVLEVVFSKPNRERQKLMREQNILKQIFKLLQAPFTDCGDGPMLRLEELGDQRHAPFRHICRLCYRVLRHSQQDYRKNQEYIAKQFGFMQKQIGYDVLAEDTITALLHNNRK
Description: (§1) The NT (residues 1–604) and IBC (residues 224–604) of rat IP3R1 were amplified by PCR from the full-length receptor clone lacking the SI splice region (GenBank® accession number GQ233032.1) as described previously. The fragments were ligated into pTrcHis A (Invitrogen) to allow expression of N-terminally His6-tagged proteins. Mutagenesis of the 1-8-14 motif within the NT used the QuikChange® II XL site-directed mutagenesis kit (Stratagene) for single mutants (F53E, L60E, Y66E and K52E) and the QuikChange® multi-site-directed mutagenesis kit for the double mutant (F53E and Y66E). The primers used are listed in Supplementary Table S2 (at http://www.BiochemJ.org/bj/449/bj4490039add.htm). The same primers and conditions were used for mutagenesis of full-length IP3R using IP3R1 in the pENTR 1A vector. Full-length constructs were subcloned into pcDNA3.2/V5-DEST for expression in DT40 cells. The complete sequence of every mutant construct was verified by sequencing.
(§2) The pTrcHis constructs were used for expression of N-terminally His6-tagged proteins in Escherichia coli strain BL21(DE3) cells. Before use for [^3H]IP3 binding, proteins were cleaved from the His6 tags using biotinylated thrombin (Novagen) at the engineered thrombin-cleavage site. Complete cleavage was verified by Western blotting using an anti-His6 antibody. The proteins were used for [^3H]IP3 binding without further purification.
(§3) Equilibrium-competition binding assays were performed at 4°C for 5 min in CLM (500 μl) with a free Ca^2+ concentration of 220 nM and containing [^3H]IP3 (0.75–1.5 nM), bacterial lysate (10 μg of protein for IBC and 100 μg of protein for NT) or cerebellar membranes (50 μg of protein) and competing ligands. Non-specific binding was defined by addition of 10 μM IP3. Bound and free [^3H]IP3 were separated by centrifugation at 20000 g for 5 min, after addition of poly(ethylene glycol) (15% final concentration) and γ-globulin (0.75 mg) for soluble proteins. Results were analysed by fitting to a Hill equation (using GraphPad Prism) from which the IC50 (half-maximal inhibitory concentration) and thereby the Kd (equilibrium dissociation constant) were calculated.

[2] = target: T2, NT of rat IP3R1 with F53E mutation (Rattus norvegicus, UniProt P29994, DEL318-332/F53E); test: [3H]IP3 equilibrium-competition binding to NT F53E; conditions: fragment NT F53E
T2 construct: The NT (residues 1–604) and IBC (residues 224–604) of rat IP3R1; His6 (N, cleaved yes); made in house; host or cells: Escherichia coli BL21(DE3)
T2 sequence (P29994 1-589 isoform P29994-2 F53E limits assumed): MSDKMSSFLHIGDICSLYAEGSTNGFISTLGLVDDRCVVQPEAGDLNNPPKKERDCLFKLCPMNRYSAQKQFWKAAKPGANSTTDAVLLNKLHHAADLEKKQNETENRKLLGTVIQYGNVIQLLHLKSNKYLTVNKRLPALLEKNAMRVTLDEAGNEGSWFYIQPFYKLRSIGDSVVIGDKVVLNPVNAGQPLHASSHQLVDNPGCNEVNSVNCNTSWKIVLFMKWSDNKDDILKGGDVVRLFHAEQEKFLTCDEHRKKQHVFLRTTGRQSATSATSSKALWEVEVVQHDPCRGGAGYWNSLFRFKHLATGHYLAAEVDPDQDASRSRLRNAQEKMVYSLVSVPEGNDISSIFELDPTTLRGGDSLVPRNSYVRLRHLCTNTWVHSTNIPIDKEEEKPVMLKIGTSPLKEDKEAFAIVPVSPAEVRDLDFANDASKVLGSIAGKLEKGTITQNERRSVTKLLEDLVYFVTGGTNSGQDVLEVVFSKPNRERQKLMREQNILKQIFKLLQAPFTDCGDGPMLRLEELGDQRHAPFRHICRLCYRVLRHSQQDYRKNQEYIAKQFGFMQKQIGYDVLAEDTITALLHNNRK
Description: as §1, §2, §3

[3] = target: T3, NT of rat IP3R1 with L60E mutation (Rattus norvegicus, UniProt P29994, DEL318-332/L60E); test: [3H]IP3 equilibrium-competition binding to NT L60E; conditions: fragment NT L60E
T3 construct: The NT (residues 1–604) and IBC (residues 224–604) of rat IP3R1; His6 (N, cleaved yes); made in house; host or cells: Escherichia coli BL21(DE3)
T3 sequence (P29994 1-589 isoform P29994-2 L60E limits assumed): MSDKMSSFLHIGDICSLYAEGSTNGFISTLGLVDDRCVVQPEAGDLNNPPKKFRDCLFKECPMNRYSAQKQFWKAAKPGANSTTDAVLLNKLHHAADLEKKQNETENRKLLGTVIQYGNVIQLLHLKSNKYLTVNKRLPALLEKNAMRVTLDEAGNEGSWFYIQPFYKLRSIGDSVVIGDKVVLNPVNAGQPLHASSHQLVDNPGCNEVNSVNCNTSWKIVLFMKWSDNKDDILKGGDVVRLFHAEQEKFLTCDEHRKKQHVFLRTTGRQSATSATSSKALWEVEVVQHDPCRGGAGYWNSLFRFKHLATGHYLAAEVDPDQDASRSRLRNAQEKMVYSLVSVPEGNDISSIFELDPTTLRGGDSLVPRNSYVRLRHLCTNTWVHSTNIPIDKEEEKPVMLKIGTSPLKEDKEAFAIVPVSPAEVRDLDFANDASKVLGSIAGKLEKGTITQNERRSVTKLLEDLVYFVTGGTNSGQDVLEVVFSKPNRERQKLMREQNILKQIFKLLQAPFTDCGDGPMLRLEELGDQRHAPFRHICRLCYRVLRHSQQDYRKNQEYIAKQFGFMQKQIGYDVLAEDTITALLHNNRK
Description: as §1, §2, §3

[4] = target: T4, NT of rat IP3R1 with Y66E mutation (Rattus norvegicus, UniProt P29994, DEL318-332/Y66E); test: [3H]IP3 equilibrium-competition binding to NT Y66E; conditions: fragment NT Y66E
T4 construct: The NT (residues 1–604) and IBC (residues 224–604) of rat IP3R1; His6 (N, cleaved yes); made in house; host or cells: Escherichia coli BL21(DE3)
T4 sequence (P29994 1-589 isoform P29994-2 Y66E limits assumed): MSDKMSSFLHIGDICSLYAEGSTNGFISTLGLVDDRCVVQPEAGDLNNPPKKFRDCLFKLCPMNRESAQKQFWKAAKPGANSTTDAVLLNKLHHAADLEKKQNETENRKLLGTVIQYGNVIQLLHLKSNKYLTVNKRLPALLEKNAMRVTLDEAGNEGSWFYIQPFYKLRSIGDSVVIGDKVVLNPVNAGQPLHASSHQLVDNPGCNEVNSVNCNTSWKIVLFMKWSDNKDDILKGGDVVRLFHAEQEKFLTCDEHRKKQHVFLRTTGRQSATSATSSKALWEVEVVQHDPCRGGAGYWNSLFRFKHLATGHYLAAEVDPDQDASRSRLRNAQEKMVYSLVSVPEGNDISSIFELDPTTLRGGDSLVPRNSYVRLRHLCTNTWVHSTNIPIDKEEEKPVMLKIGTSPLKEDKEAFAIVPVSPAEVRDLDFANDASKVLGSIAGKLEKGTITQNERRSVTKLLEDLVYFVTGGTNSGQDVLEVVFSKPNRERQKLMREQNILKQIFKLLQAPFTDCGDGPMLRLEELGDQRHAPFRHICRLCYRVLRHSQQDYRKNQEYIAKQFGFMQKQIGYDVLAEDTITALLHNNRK
Description: as §1, §2, §3

[5] = target: T5, IBC (residues 224–604) of rat IP3R1 (Rattus norvegicus, UniProt P29994, DEL318-332); test: [3H]IP3 equilibrium-competition binding to IBC
T5 construct: IBC (residues 224–604) of rat IP3R1 were amplified by PCR; His6 (N, cleaved yes); made in house; host or cells: Escherichia coli BL21(DE3)
T5 sequence (P29994 224-589 isoform P29994-2 limits assumed, stated change not applied): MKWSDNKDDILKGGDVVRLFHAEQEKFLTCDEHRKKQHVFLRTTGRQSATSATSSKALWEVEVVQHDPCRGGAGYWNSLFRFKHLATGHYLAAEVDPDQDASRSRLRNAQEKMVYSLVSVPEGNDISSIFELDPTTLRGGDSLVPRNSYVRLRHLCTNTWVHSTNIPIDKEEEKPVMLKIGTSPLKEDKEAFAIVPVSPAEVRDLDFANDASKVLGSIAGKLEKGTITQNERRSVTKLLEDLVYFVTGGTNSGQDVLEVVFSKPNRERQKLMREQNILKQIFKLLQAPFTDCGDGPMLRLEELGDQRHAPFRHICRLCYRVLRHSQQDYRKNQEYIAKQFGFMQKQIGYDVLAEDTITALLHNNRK
Description: as §1, §2, §3

In the case of heparin, the “Affinity relative to NT (heparin), Kd^NT/Kd^mutant” value (“Affinity relative to NT (heparin)” below) [1] is reported as 1 fold, the “Kd, ng/ml (heparin)” value [1] is reported as 239 ng/mL and the “pKd, /g/ml heparin” value ([1]; mean±S.E.M., n≥3) is reported as 6.62±0.06 /g/ml. For the same substance, the “Affinity relative to NT (heparin)” value [2] was 2 fold, the “Kd, ng/ml (heparin)” value [2] was 120 ng/mL and the “pKd, /g/ml heparin” value ([2]; mean±S.E.M., n≥3) was 6.92±0.06 /g/ml. The “Affinity relative to NT (heparin)” value [3] was 1.2 fold, the “Kd, ng/ml (heparin)” value [3] was 200 ng/mL and the “pKd, /g/ml heparin” value ([3]; mean±S.E.M., n≥3) was 6.70±0.04 /g/ml. For the same substance, the “Affinity relative to NT (heparin)” value [4] was 1.4 fold, the “Kd, ng/ml (heparin)” value [4] was 171 ng/mL and the “pKd, /g/ml heparin” value ([4]; mean±S.E.M., n≥3) was 6.77±0.03 /g/ml. For the same substance, the “Kd, ng/ml (heparin)” value ([5]; fragment IBC) was 117 ng/mL, the “Affinity relative to NT (heparin)” value ([5]; fragment IBC (SD removed)) was 2 fold and 2.0 fold and the “pKd, /g/ml heparin” value ([5]; fragment IBC, mean±S.E.M., n≥3) was 6.93±0.04 /g/ml.
